In patent US20250353891A1 (MEDIMMUNE LIMITED, priority 2022, published 2025):
Like-named read-outs stand apart in the source and are kept apart here. Starred links: 1 amine or outer side, 2 acyl side, 3 side chain; linkers in the order of their positions; H or OH if unused. Non-standard residues stand in square brackets, D forms with d. Residues, ends and D or L forms follow the SMILES beside them. Groups on a side chain read outwards from the residue. *: point of attachment. X1 = CC(C)(CCNC(=N)N)[C@H](N[*:1])C(=O)[*:2]; C20 diacid = O=C(O)CCCCCCCCCCCCCCCCCCC(=O)*; C18 diacid = O=C(O)CCCCCCCCCCCCCCCCC(=O)*; γGlu = O=C(O)[C@H](CCC(=O)[*:2])N[*:1]; Palmitoyl = CCCCCCCCCCCCCCCC(=O)*; αMeF = C[C@](N)(Cc1ccccc1)C(=O)O; PEG2 = NCCOCCOCCC(=O)O; AEEA = NCCOCCOCC(=O)O; Aib = CC(C)(N)C(=O)O

Tests used:
[1] = molecular target: human GLP-1 receptor (hGLP-1R) (Homo sapiens, UniProt P43220); assay: cAMP production (HTRF) in CHO cells expressing hGLP-1R; assay type: cell-based; parameters: expressed in transfected cells; conditions: for % Relative Potency Ratio: % GLP-1R activity relative to GLP-1 / % GlucR activity relative to glucagon; for EC50: geometric mean, read-out: hGLP-1R EC50
In short: (§1)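 Potency values represent EC50 from 4-parameter logistic curves of HTRF % Delta F signal. Receptor-expressing CHO cells (hGCGR 2×10^5 cells/mL, hGLP-1R 1×10^5 cells/mL) were exposed for 30 min at room temperature before two-step cAMP detection.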

[2] = molecular target: human glucagon receptor (hGCGR) (Homo sapiens, UniProt P47871); assay: cAMP production (HTRF) in CHO cells expressing hGCGR; assay type: cell-based; parameters: expressed in transfected cells; conditions: geometric mean, read-out: hGluc-R EC50
In short: as §1

[3] = Table 6, peptides modified at position 17, cAMP in CHO hGLP-1R cells
[4] = Table 6, peptides modified at position 17, cAMP in CHO hGCGR cells

Chain of human glucagon receptor (hGCGR) (P47871 26-477): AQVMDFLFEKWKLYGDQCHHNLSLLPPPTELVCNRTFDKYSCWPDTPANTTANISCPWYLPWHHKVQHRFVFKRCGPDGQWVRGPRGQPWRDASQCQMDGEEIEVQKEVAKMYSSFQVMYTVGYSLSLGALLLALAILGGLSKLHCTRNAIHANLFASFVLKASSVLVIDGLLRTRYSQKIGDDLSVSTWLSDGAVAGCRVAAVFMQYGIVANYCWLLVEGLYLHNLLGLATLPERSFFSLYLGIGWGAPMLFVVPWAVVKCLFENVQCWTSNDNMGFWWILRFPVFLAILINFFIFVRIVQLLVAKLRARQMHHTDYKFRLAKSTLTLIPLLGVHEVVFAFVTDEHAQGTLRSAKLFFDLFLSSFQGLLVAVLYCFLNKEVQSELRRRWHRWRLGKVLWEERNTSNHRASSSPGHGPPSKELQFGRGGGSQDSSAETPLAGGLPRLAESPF
Chain of human GLP-1 receptor (hGLP-1R) (P43220 24-463): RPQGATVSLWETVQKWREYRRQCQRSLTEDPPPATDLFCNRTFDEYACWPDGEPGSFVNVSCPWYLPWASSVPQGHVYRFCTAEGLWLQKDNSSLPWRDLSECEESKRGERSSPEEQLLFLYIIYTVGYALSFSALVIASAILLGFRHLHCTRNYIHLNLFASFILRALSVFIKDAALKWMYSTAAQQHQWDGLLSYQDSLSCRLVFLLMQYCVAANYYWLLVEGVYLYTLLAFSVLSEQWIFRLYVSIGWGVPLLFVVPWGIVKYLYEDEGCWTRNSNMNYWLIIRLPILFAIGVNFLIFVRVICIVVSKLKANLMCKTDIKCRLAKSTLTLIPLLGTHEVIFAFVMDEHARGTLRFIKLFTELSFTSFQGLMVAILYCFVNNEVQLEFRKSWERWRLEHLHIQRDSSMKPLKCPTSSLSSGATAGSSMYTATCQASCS

| SMILES | % Relative Potency Ratio [1] | EC50 ([1]; cAMP, CHO cells, 0.1% BSA) | EC50 ([2]; cAMP, CHO cells, 0.1% BSA) | EC50 [1, 3] | % Relative Potency Ratio ([1]; Table 6) | EC50 [2, 4] |
| --- | --- | --- | --- | --- | --- | --- |
| CC[C@H](C)[C@H](NC(=O)C(C)(C)NC(=O)[C@H](CCCCNC(=O)COCCOCCNC(=O)COCCOCCNC(=O)CC[C@H](NC(=O)CC[C@H](NC(=O)CCCCCCCCCCCCCCCCCCC(=O)O)C(=O)O)C(=O)O)NC(=O)[C@@H](NC(=O)[C@](C)(Cc1ccccc1)NC(=O)[C@H](CC(=O)O)NC(=O)[C@H](CCC(N)=O)NC(=O)[C@H](C)NC(=O)[C@H](C)NC(=O)[C@H](CCC(N)=O)NC(=O)[C@H](CO)NC(=O)[C@H](CC(=O)O)NC(=O)[C@H](CC(C)C)NC(=O)[C@](C)(Cc1ccccc1)NC(=O)[C@H](CCCCN)NC(=O)[C@H](CO)NC(=O)[C@@H](NC(=O)[C@H](CC(=O)O)NC(=O)[C@H](CO)NC(=O)[C@@H](NC(=O)[C@](C)(Cc1ccccc1)NC(=O)[C@H](CO)NC(=O)CNC(=O)[C@H](Cc1c[nH]cn1)NC(=O)C(C)(C)NC(=O)[C@@H](N)Cc1c[nH]cn1)[C@@H](C)O)C(C)C)C(C)C)C(=O)N[C@@H](C)C(=O)N[C@@H](CC(N)=O)C(=O)N[C@H](C(N)=O)[C@@H](C)O [Peptide 384] (H-H[Aib]HGS[αMeF]TSDVSK[αMeF]LDSQAAQD[αMeF]VK([AEEA-AEEA-γGlu-γGlu-C20 diacid])[Aib]IANT-NH2; N-terminus assumed) | 3.1 | 0.797 nM | 1.24 nM | – | – | – |
| CCCCCCCCCCCCCCCC(=O)N[C@@H](CCC(=O)N[C@@H](CCC(=O)NCCOCCOCCC(=O)NCCOCCOCCC(=O)NCCCC[C@H](NC(=O)[C@H](CCCCN)NC(=O)[C@H](CO)NC(=O)[C@@H](NC(=O)[C@H](CC(=O)O)NC(=O)[C@H](CO)NC(=O)[C@@H](NC(=O)[C@](C)(Cc1ccccc1)NC(=O)[C@H](CO)NC(=O)CNC(=O)[C@H](CCC(N)=O)NC(=O)[C@H](CO)NC(=O)[C@@H](N)Cc1c[nH]cn1)[C@@H](C)O)C(C)C)C(=O)N[C@@H](CC(C)C)C(=O)N[C@@H](CC(=O)O)C(=O)N[C@@H](CO)C(=O)N[C@H](C(=O)N[C@@H](C)C(=O)N[C@@H](C)C(=O)N[C@@H](CCC(N)=O)C(=O)N[C@@H](CC(=O)O)C(=O)N[C@@](C)(Cc1ccccc1)C(=O)N[C@H](C(=O)N[C@@H](CCC(=O)O)C(=O)NC(C)(C)C(=O)N[C@@H](CC(C)C)C(=O)N[C@@H](C)C(=O)N[C@@H](CC(N)=O)C(=O)N[C@H](C(N)=O)[C@@H](C)O)C(C)C)C(C)(C)CCNC(=N)N)C(=O)O)C(=O)O [Peptide 400, HSQGS(αMePhe)TSDVSKK((PEG)2-(PEG)2-γE-γE-Palmitoyl)13LDS(β-dimethylArg)AAQD(αMePhe)VE(Aib)LANT-amide] (H-HSQGS[αMeF]TSDVSKK([PEG2-PEG2-γGlu-γGlu-Palmitoyl])LDS[X1]AAQD[αMeF]VE[Aib]LANT-NH2; N-terminus assumed) | 16.7 | 0.00127 nM | 0.0107 nM | – | – | – |
| CC[C@H](C)[C@H](NC(=O)C(C)(C)NC(=O)[C@H](CCC(N)=O)NC(=O)[C@@H](NC(=O)[C@](C)(Cc1ccccc1)NC(=O)[C@H](CC(=O)O)NC(=O)[C@H](CCC(N)=O)NC(=O)[C@H](C)NC(=O)[C@H](C)NC(=O)[C@H](CCCNC(=N)N)NC(=O)[C@H](CO)NC(=O)[C@H](CC(=O)O)NC(=O)[C@H](CC(C)C)NC(=O)[C@H](CCCCNC(=O)COCCOCCNC(=O)COCCOCCNC(=O)CC[C@H](NC(=O)CCCCCCCCCCCCCCCCC(=O)O)C(=O)O)NC(=O)[C@H](CCCCN)NC(=O)[C@H](CO)NC(=O)[C@@H](NC(=O)[C@H](CC(=O)O)NC(=O)[C@H](CO)NC(=O)[C@@H](NC(=O)[C@](C)(Cc1ccccc1)NC(=O)[C@H](CO)NC(=O)CNC(=O)[C@H](Cc1c[nH]cn1)NC(=O)C(C)(C)NC(=O)[C@@H](N)Cc1c[nH]cn1)[C@@H](C)O)C(C)C)C(C)C)C(=O)N[C@@H](C)C(=O)N[C@@H](CC(N)=O)C(=O)N[C@H](C(N)=O)[C@@H](C)O [Peptide 406] (H-H[Aib]HGS[αMeF]TSDVSKK([AEEA-AEEA-γGlu-C18 diacid])LDSRAAQD[αMeF]VQ[Aib]IANT-NH2; N-terminus assumed) | 31.6 | 0.458 nM | 7.31 nM | – | – | – |
| CC(C)C[C@H](NC(=O)[C@H](Cc1c[nH]c2ccccc12)NC(=O)[C@H](CCCNC(=N)N)NC(=O)[C@@H](NC(=O)[C@H](Cc1ccccc1)NC(=O)[C@H](CC(=O)O)NC(=O)[C@H](CCC(N)=O)NC(=O)[C@H](C)NC(=O)[C@H](CCCNC(=N)N)NC(=O)[C@H](CCCCNC(=O)COCCOCCNC(=O)COCCOCCNC(=O)CC[C@H](NC(=O)CC[C@H](NC(=O)CCCCCCCCCCCCCCCCCCC(=O)O)C(=O)O)C(=O)O)NC(=O)[C@@H](NC(=O)[C@H](CC(=O)O)NC(=O)[C@H](CC(C)C)NC(=O)[C@](C)(Cc1ccccc1)NC(=O)[C@H](CCCCN)NC(=O)[C@H](CO)NC(=O)[C@@H](NC(=O)[C@H](CC(=O)O)NC(=O)[C@H](CO)NC(=O)[C@@H](NC(=O)[C@H](Cc1ccccc1)NC(=O)[C@@H](NC(=O)CNC(=O)[C@H](CCC(N)=O)NC(=O)C(C)(C)NC(=O)[C@@H](N)Cc1c[nH]cn1)[C@@H](C)O)[C@@H](C)O)C(C)C)[C@@H](C)O)C(C)C)C(=O)N[C@@H](CCC(=O)O)C(=O)N[C@@H](C)C(=O)NC(C)(C)C(=O)NCC(=O)O [Peptide 408] (H-H[Aib]QGTFTSDVSK[αMeF]LDTK([AEEA-AEEA-γGlu-γGlu-C20 diacid])RAQDFVRWLEA[Aib]G-OH; N-terminus assumed) | – | – | – | 0.37 nM | 4.4 | 0.828 nM |
| CC(C)C[C@H](NC(=O)[C@H](Cc1c[nH]c2ccccc12)NC(=O)[C@H](C)NC(=O)[C@@H](NC(=O)[C@H](Cc1ccccc1)NC(=O)[C@H](CC(=O)O)NC(=O)[C@H](CCCNC(=N)N)NC(=O)[C@H](C)NC(=O)[C@H](CCCNC(=N)N)NC(=O)[C@H](CCCCNC(=O)COCCOCCNC(=O)COCCOCCNC(=O)CC[C@H](NC(=O)CCCCCCCCCCCCCCCCC(=O)O)C(=O)O)NC(=O)[C@@H](NC(=O)[C@H](CC(=O)O)NC(=O)[C@H](CC(C)C)NC(=O)[C@](C)(Cc1ccccc1)NC(=O)[C@H](CCCCN)NC(=O)[C@H](CO)NC(=O)[C@@H](NC(=O)[C@H](CC(=O)O)NC(=O)[C@H](CO)NC(=O)[C@@H](NC(=O)[C@H](Cc1ccccc1)NC(=O)[C@@H](NC(=O)CNC(=O)[C@H](CCC(N)=O)NC(=O)C(C)(C)NC(=O)[C@@H](N)Cc1c[nH]cn1)[C@@H](C)O)[C@@H](C)O)C(C)C)[C@@H](C)O)C(C)C)C(=O)N[C@@H](CC(C)C)C(=O)NC(C)(C)C(=O)N[C@H](C(=O)N[C@@H](CCC(=O)O)C(=O)O)[C@@H](C)O [Peptide 409] (H-H[Aib]QGTFTSDVSK[αMeF]LDTK([AEEA-AEEA-γGlu-C18 diacid])RARDFVAWLL[Aib]TE-OH; N-terminus assumed) | – | – | – | 0.0227 nM | 17.7 | 0.203 nM |
| CC(C)C[C@H](NC(=O)[C@H](Cc1c[nH]c2ccccc12)NC(=O)[C@H](C)NC(=O)[C@@H](NC(=O)[C@H](Cc1ccccc1)NC(=O)[C@H](CC(=O)O)NC(=O)[C@H](CCCNC(=N)N)NC(=O)[C@H](C)NC(=O)[C@H](CCCNC(=N)N)NC(=O)[C@H](CCCCNC(=O)COCCOCCNC(=O)COCCOCCNC(=O)CC[C@H](NC(=O)CCCCCCCCCCCCCCCCCCC(=O)O)C(=O)O)NC(=O)[C@@H](NC(=O)[C@H](CC(=O)O)NC(=O)[C@H](CC(C)C)NC(=O)[C@](C)(Cc1ccccc1)NC(=O)[C@H](CCCCN)NC(=O)[C@H](CO)NC(=O)[C@@H](NC(=O)[C@H](CC(=O)O)NC(=O)[C@H](CO)NC(=O)[C@@H](NC(=O)[C@H](Cc1ccccc1)NC(=O)[C@@H](NC(=O)CNC(=O)[C@H](CCC(N)=O)NC(=O)C(C)(C)NC(=O)[C@@H](N)Cc1c[nH]cn1)[C@@H](C)O)[C@@H](C)O)C(C)C)[C@@H](C)O)C(C)C)C(=O)N[C@@H](CC(C)C)C(=O)NC(C)(C)C(=O)N[C@H](C(=O)N[C@@H](CCC(=O)O)C(=O)O)[C@@H](C)O [Peptide 410] (H-H[Aib]QGTFTSDVSK[αMeF]LDTK([AEEA-AEEA-γGlu-C20 diacid])RARDFVAWLL[Aib]TE-OH; N-terminus assumed) | – | – | – | 0.078 nM | 11.5 | 0.455 nM |
| CC(C)C[C@H](NC(=O)[C@H](Cc1c[nH]c2ccccc12)NC(=O)[C@H](C)NC(=O)[C@@H](NC(=O)[C@H](Cc1ccccc1)NC(=O)[C@H](CC(=O)O)NC(=O)[C@H](CCC(N)=O)NC(=O)[C@H](C)NC(=O)[C@H](CCCNC(=N)N)NC(=O)[C@H](CCCCNC(=O)COCCOCCNC(=O)COCCOCCNC(=O)CC[C@H](NC(=O)CCCCCCCCCCCCCCCCC(=O)O)C(=O)O)NC(=O)[C@@H](NC(=O)[C@H](CC(=O)O)NC(=O)[C@H](CC(C)C)NC(=O)[C@](C)(Cc1ccccc1)NC(=O)[C@H](CCCCN)NC(=O)[C@H](CO)NC(=O)[C@@H](NC(=O)[C@H](CC(=O)O)NC(=O)[C@H](CO)NC(=O)[C@@H](NC(=O)[C@H](Cc1ccccc1)NC(=O)[C@@H](NC(=O)CNC(=O)[C@H](CCC(N)=O)NC(=O)C(C)(C)NC(=O)[C@@H](N)Cc1c[nH]cn1)[C@@H](C)O)[C@@H](C)O)C(C)C)[C@@H](C)O)C(C)C)C(=O)N[C@@H](CCC(=O)O)C(=O)N[C@@H](C)C(=O)NCC(=O)NCC(=O)O [Peptide 411] (H-H[Aib]QGTFTSDVSK[αMeF]LDTK([AEEA-AEEA-γGlu-C18 diacid])RAQDFVAWLEAGG-OH; N-terminus assumed) | – | – | – | 0.0981 nM | 7.6 | 0.378 nM |
